Source: patent publication US20080113946A1, “N-aryl-5,7-dihydrofuro[3,4-d]pyrimidin-4-amines and analogs as activators of caspases and inducers of apoptosis and the use thereof” (Cyntovia, Inc., priority 2006, published 2008)
Where two headings read alike, the source gives them in different places.

Experiments:
Assay type in all cases: cell-based
[1] = tested on: human colon carcinoma cell line HCT116; experiment: Caspase cascade activation (Ac-DEVD-R110 fluorogenic substrate) in HCT116 cells; conditions: HCT-116, incubated 24 or 48 h (Table I), 0.016 to 10 μM final, read-out: Caspase Activation Potency EC50 HCT116
Procedure: (§1) Human breast cancer cell line T-47D, human hepatocellular carcinoma cell line SNU398 and human colon carcinoma cell line HCT116 were grown according to media component mixtures designated by American Type Culture Collection+10% FCS (Invitrogen Corporation), in a 5% CO2-95% humidity incubator at 37° C. T-47D and H1299 cells were maintained at a cell density between 50 and 80% confluency at a cell density of 0.1 to 0.6×10^6 cells/mL. Cells were harvested at 600×g and resuspended at 0.65×10^6 cells/mL into appropriate media+10% FCS. An aliquot of 22.5 μL of cells was added to a well of a 384-well microtiter plate containing 2.5 μL of a 10% DMSO in RPMI-1640 media solution containing 0.16 to 100 μM of 5,7-dihydro-N-(3,5-dimethoxyphenyl)-2-(methylthio)furo[3,4-d]pyrimidin-4-amine or other test compound (0.016 to 10 μM final). An aliquot of 22.5 μL of cells was added to a well of a 384-well microtiter plate containing 2.5 μL of a 10% DMSO in RPMI-1640 media solution without test compound as the control sample. The samples were mixed by agitation and then incubated at 37° C. for 24 or 48 h in a 5% CO2-95% humidity incubator. After incubation, the samples were removed from the incubator and 25 μL of a solution containing 14 μM of N-(Ac-DEVD)-N′-ethoxycarbonyl-R110 (SEQ ID No.:1) fluorogenic substrate (Cytovia, Inc.; WO99/18856), 20% sucrose (Sigma), 20 mM DTT (Sigma), 200 mM NaCl (Sigma), 40 mM Na PIPES buffer pH 7.2 (Sigma), and 500 µg/mL lysolecithin (Calbiochem) was added. The samples were mixed by agitation and incubated at room temperature. Using a fluorescent plate reader (Model SPECTRAfluor Plus, Tecan), an initial reading (T=0) was made approximately 1-2 min after addition of the substrate solution, employing excitation at 485 nm and emission at 530 nm, to determine the background fluorescence of the control sample. After the 3 h incubation, the samples were read for fluorescence as above (T=3 h).
(§2) The Relative Fluorescence Unit values (RFU) were used to calculate the sample readings as follows: RFU(T=3h)−Control RFU(T=0)=Net RFU(T=3h)
(§3) The activity of caspase cascade activation was determined by the ratio of the net RFU value for 5,7-dihydro-N-(3,5-dimethoxyphenyl)-2-(methylthio)furo[3,4-d]pyrimidin-4-amino or other test compound to that of control samples. The EC50 (nM) was determined by a sigmoidal dose-response calculation (Prism 3.0, GraphPad Software Inc.).

MX-1 cells = experiment: Inhibition of cell proliferation (GI50, CellTiter-Glo) in MX-1 cells; conditions: Homo sapiens, MX1, 48 h, read-out: GI50 in Cancer Cells MX1
Procedure: (§4) T-47D, MX-1, SNU398 and HCT116 cells were grown and harvested as in Example 33. An aliquot of 90 μL of cells (4.4×10^4 cells/mL) was added to a well of a 96-well microtiter plate containing 5 μL of a 10% DMSO in RPMI-1640 media solution containing 10 nM to 100 μM of 5,7-dihydro-N-(3,5-dimethoxyphenyl)-2-(methylthio)furo[3,4-d]pyrimidin-4-amine (1 nM to 10 μM final) or related compounds. An aliquot of […] of cells was added to a well of a 96-well microtiter plate containing 5 μL of a 10% DMSO in RPMI-1640 media solution without compound as the control sample for maximal cell proliferation (LMax). The samples were mixed by agitation and then incubated at 37° C. for 48 h in a 5% CO2-95% humidity incubator. After incubation, the samples were removed from the incubator and 25 μL of CellTiter-Glo™ reagent (Promega) was added. The samples were mixed by agitation and incubated at room temperature for 10-15 min. Plates were then read using a luminescent plate reader (Model SPECTRAfluor Plus, Tecan) to give Ltest values.
(§5) Baseline for GI50 (dose for 50% inhibition of cell proliferation) of initial cell numbers was determined by adding an aliquot of 45 μL of cells or 45 μL of media, respectively, to wells of a 96-well microtiter plate containing 5 μL of a 10% DMSO in RPMI-1640 media solution. The samples were mixed by agitation and then incubated at 37° C. for 0.5 h in a 5% CO2-95% humidity incubator. After incubation, the samples were removed from the incubator and 25 μL of CellTiter-Glo™ reagent (Promega) was added. The samples were mixed by agitation and incubated at 37° C. for 10-15 min at room temperature in a 5% CO2-95% humidity incubator. Fluorescence was read as above, (LStart) defining luminescence for initial cell number used as baseline in GI50 determinations.
(§6) GI50 (dose for 50% inhibition of cell proliferation) is the concentration where [(LTest−LStart)/(LMax−LStart)]=0.5.

SNU398 cells = experiment: Inhibition of cell proliferation (GI50, CellTiter-Glo) in SNU398 cells; conditions: Homo sapiens, SNU-398, 48 h, read-out: GI50 in Cancer Cells SNU398
Procedure: as §4, §5, §6

[2] = tested on: Human breast cancer cell line T-47D; experiment: Caspase cascade activation (Ac-DEVD-R110 fluorogenic substrate) in T-47D cells; conditions: T47D
Procedure: as §1, §2, §3

[3] = tested on: human hepatocellular carcinoma cell line SNU398; experiment: Caspase cascade activation (Ac-DEVD-R110 fluorogenic substrate) in SNU398 cells
Procedure: as §1, §2, §3

T-47D cells = experiment: Inhibition of cell proliferation (GI50, CellTiter-Glo) in T-47D cells; conditions: Homo sapiens, T47D, 48 h, read-out: GI50 in Cancer Cells T47D
Procedure: as §4, §5, §6

[4] = tested on: breast cancer cell line SKBR3; experiment: Caspase cascade activation (24 h assay) in SKBR3 cells; conditions: Homo sapiens, SK-BR-3, 24 h assay (Table II), read-out: Caspase Activation Potency EC50 (24 h) SKBR3
Procedure: [The procedure below names another cell line; the source lists this cell line under the same test.] Human breast cancer cell line T-47D, human hepatocellular carcinoma cell line SNU398 and human colon carcinoma cell line HCT116 were grown according to media component mixtures designated by American Type Culture Collection+10% FCS (Invitrogen Corporation), in a 5% CO2-95% humidity incubator at 37° C. T-47D and H1299 cells were maintained at a cell density between 50 and 80% confluency at a cell density of 0.1 to 0.6×10^6 cells/mL. Cells were harvested at 600×g and resuspended at 0.65×10^6 cells/mL into appropriate media+10% FCS. […] Using a fluorescent plate reader (Model SPECTRAfluor Plus, Tecan), an initial reading (T=0) was made approximately 1-2 min after addition of the substrate solution, employing excitation at 485 nm and emission at 530 nm, to determine the background fluorescence of the control sample. After the 3 h incubation, the samples were read for fluorescence as above (T=3 h).
as §2
as §3, with “Inc.). […]” for “Inc.).”

HCT116 cells = experiment: Inhibition of cell proliferation (GI50, CellTiter-Glo) in HCT116 cells; conditions: Homo sapiens, HCT-116, 48 h, read-out: GI50 in Cancer Cells HCT116
Procedure: as §4, §5, §6

[5] = tested on: human lung cancer cell line H1299; experiment: Caspase cascade activation (24 h assay) in H1299 cells; conditions: NCI-H1299, 24 h assay (Table II), read-out: Caspase Activation Potency EC50 (24 h) H1299
Procedure: as §1, with “After incubation, the samples were removed from the incubator and 25 μL of a solution containing 14 μM of N-(Ac-DEVD)-N′-ethoxycarbonyl-R110 (SEQ ID No.:1) fluorogenic substrate (Cytovia, Inc.; WO99/18856), 20% sucrose (Sigma), 20 mM DTT (Sigma), 200 mM NaCl (Sigma), 40 mM Na PIPES buffer pH 7.2 (Sigma), and 500 µg/mL lysolecithin (Calbiochem) was added. The samples were mixed by agitation and incubated at room temperature.” left out
as §2
as §3, with “Inc.). […]” for “Inc.).”

[6] = tested on: human sarcoma cell line MES-SA; experiment: Inhibition of cell proliferation (GI50) in MES-SA cells; conditions: read-out: GI50 in Multi-Cancer Cells MES-SA
Procedure: [The procedure below names another cell line; the source lists this cell line under the same test.] as §4
(§7) Baseline for GI50 (dose for 50% inhibition of cell proliferation) of initial cell numbers was determined by adding an aliquot of 45 μL of cells or 45 μL of media, respectively, to wells of a 96-well microtiter plate containing 5 μL of a 10% DMSO in RPMI-1640 media solution. […]

[7] = tested on: multi-drug resistant (MDR) human sarcoma cell line MES-SA/ADR; experiment: Inhibition of cell proliferation (GI50) in MES-SA/ADR cells; conditions: read-out: GI50 in Multi-Cancer Cells MES-SA/ADR
Procedure: [The procedure below names another cell line; the source lists this cell line under the same test.] as §4, §7

[8] = tested on: multi-drug resistant (MDR) murine leukemia cell line P388ADR; experiment: Inhibition of cell proliferation (GI50) in P388ADR cells; conditions: Mus musculus, P388/ADR, read-out: GI50 in Multi-Cancer Cells P388ADR
Procedure: [The procedure below names another organism; the source lists this organism under the same test.] as §4, §7

[9] = tested on: human breast cancer cell lines MDAMB435; experiment: Inhibition of cell proliferation (GI50) in MDAMB435 cells; conditions: MDA-MB-435, read-out: GI50 in Multi-Cancer Cells MDAMB435
Procedure: [The procedure below names another cell line; the source lists this cell line under the same test.] as §4, §7

[10] = tested on: murine leukemia cell line P388; experiment: Inhibition of cell proliferation (GI50) in P388 cells; conditions: Mus musculus, read-out: GI50 in Multi-Cancer Cells P388
Procedure: [The procedure below names another organism; the source lists this organism under the same test.] as §4, §7

[11] = 24 h assay (Table II), read-out: Caspase Activation Potency EC50 (24 h) T47D
[12] = T-47D, incubated 24 or 48 h (Table I), 0.016 to 10 μM final, read-out: Caspase Activation Potency EC50 T-47D
[13] = SNU-398, 24 h assay (Table II), read-out: Caspase Activation Potency EC50 (24 h) SNU398
[14] = SNU-398, incubated 24 or 48 h (Table I), 0.016 to 10 μM final, read-out: Caspase Activation Potency EC50 SNU398

| SMILES | EC50 [1] | GI50 (SNU398 cells) | EC50 [2, 11] | EC50 [2, 12] | EC50 [3, 13] | EC50 [3, 14] | GI50 (T-47D cells) | EC50 [4] | GI50 (HCT116 cells) | EC50 [5] | GI50 [6] | GI50 [7] | GI50 [8] | GI50 [9] | GI50 [10] | GI50 (MX-1 cells) |
| --- | --- | --- | --- | --- | --- | --- | --- | --- | --- | --- | --- | --- | --- | --- | --- | --- |
| COc1cc(Nc2nc(SC)nc3c2COC3)cc(OC)c1 [Example 7, 5,7-Dihydro-N-(3,5-dimethoxyphenyl)-2-(methylthio)furo[3,4-d]pyrimidin-4-amine] | 5500 nM | 3740 nM | 54 nM | 61 nM | > 10000 nM | 4710 nM | 183 nM | 118 nM | 3000 nM |  |  |  |  |  |  | 27 nM |
| COc1ccc(OC)c(Nc2nc(SC)nc3c2CCC3)c1 [Example 18, 6,7-Dihydro-N-(2,5-dimethoxyphenyl)-2-(methylthio)-5H-cyclopenta[d]pyrimidin-4-amine] | 286 nM | > 10000 nM | 82 nM | 134 nM | > 10000 nM | 1320 nM | 21 nM |  | > 10000 nM | 934 nM |  |  |  |  |  | 200 nM |
| COc1ccc(N(C)c2nc(SC)nc3c2CCC3)cc1 [Example 23, 6,7-Dihydro-N-(4-methoxyphenyl)-N-methyl-2-(methylthio)-5H-cyclopenta[d]pyrimidin-4-amine] |  |  | 32 nM | 31 nM | 35 nM |  | 46 nM |  |  | 43 nM | 26 nM | 26 nM | 21 nM | 4 nM | 14 nM | 50 nM |
| COc1cc(Nc2ncnc3c2CCC3)cc(OC)c1 [Example 24, 6,7-Dihydro-N-(3,5-dimethoxyphenyl)-5H-cyclopenta[d]pyrimidin-4-amine] | > 10000 nM | > 10000 nM |  | 987 nM |  | > 10000 nM | 5000 nM |  | > 10000 nM |  |  |  |  |  |  | 5000 nM |

The next lines start with results.

| EC50 [1] | GI50 (SNU398 cells) | EC50 [2, 11] | EC50 [2, 12] | EC50 [3, 13] | EC50 [3, 14] | GI50 (T-47D cells) | EC50 [4] | GI50 (HCT116 cells) | EC50 [5] | GI50 [6] | GI50 [7] | GI50 [8] | GI50 [9] | GI50 [10] | SMILES | GI50 (MX-1 cells) |
| --- | --- | --- | --- | --- | --- | --- | --- | --- | --- | --- | --- | --- | --- | --- | --- | --- |
| > 10000 nM | > 10000 nM | 244 nM | 260 nM | > 10000 nM | > 10000 nM | 1000 nM | 355 nM | > 10000 nM | > 10000 nM |  |  |  |  |  | COc1ccc(OC)c(Nc2ncnc3c2CCC3)c1 [Example 25, 6,7-Dihydro-N-(2,5-dimethoxyphenyl)-5H-cyclopenta[d]pyrimidin-4-amine] | 890 nM |
| > 10000 nM | > 10000 nM |  | 164 nM |  | > 10000 nM | 500 nM |  | > 10000 nM |  |  |  |  |  |  | COc1cc(Nc2nc([S+](C)[O-])nc3c2CCC3)cc(OC)c1 (centres unmarked) [Example 27, 6,7-Dihydro-N-(3,5-dimethoxyphenyl)-2-(methylsulfinyl)-5H-cyclopenta[d]pyrimidin-4-amine] | 600 nM |
